How the values were obtained:
[1] = target: T1, human cloned 5-HT2B receptors (Homo sapiens, UniProt P41595); experiment: Human cloned 5-HT2B receptor binding assay ([3H]LSD, CHO-K1 membranes); settings: displacement of [3H]LSD (1 nM), read-out: 5-HT2B pKi (converted)
T1 construct: expressed in transfected cells; host or cells: CHO-K1 cells
Description: The binding affinity of the compounds for human cloned 5-HT2B receptors was determined using the following assay.
CHO-K1 cells expressing cloned 5-HT2B receptor were maintained in Ultra-CHO medium containing 400 μg/ml of G418, 100 U/ml penicillin, 100 μg/ml streptomycin, 2.5 μg/ml fungizone and 1% foetal bovine serum, in 95/5% O2/CO2 at 37° C. The cells were harvested using 0.25% trypsin and were centrifuged at 800 rpm for 8 minutes. The cells were homogenised in 50 mM HEPES buffer containing 1 mM disodium EDTA and 1 mM PMSF at pH 7.4, using a Dounce homogeniser (20 strokes). The homogenate was centrifuged at 2280 rpm (1000 g) and 4° C. for 10 minutes, after which the supernatant was removed by decanting. The pellet was re-homogenised as above, and the resulting supernatant removed and combined with that already obtained. The supernatant solution was then centrifuged at 18300 rpm (40000 g) for 10 minutes at 4° C. using a Sorvall centrifuge. The supernatant was removed, and the pellet was re-suspended in 50 mM buffer at pH 7.4 using a Ultra-turrax T25 Polytron, before centrifugation again at 40000 g as above. This wash procedure was repeated, after which the membrane preparation was stored at a concentration of 1 mg/ml at −80° C. until use.
The membranes were thawed rapidly and diluted in assay buffer containing Tris-HCl (50 mM, pH 7.4), ascorbic acid (0.1%) and calcium chloride (4 mM). The membranes were homogenised to resuspend them, prior to adding 10 or 15 μg of membranes to assay wells containing [^3H]LSD (1 nM), assay buffer (50 mM Tris, 4 mM calcium chloride and 0.1% ascorbic acid) containing pargyline (10 μM), and the test compounds (1×10^−10 to 1×10^−4M). Non specific binding was determined in the presence of 100 μM 5-HT. After 30 minutes incubation at 37° C., the assay mixture was filtered through a combination of GF-C and GF-B filters, pre-soaked in 1% polyethyleneimine, using a Brandel cell harvester, and were washed three times using 50 mM Tris-HCl. Radioactivity retained on the filters was determined by liquid scintillation counting. For each test compound, the concentration that inhibited binding of [3H]LSD by 50% was determined using curve fitting software (Prism). Kd values (concentration of LSD required to occupy 50% of the receptor binding sites at equilibrium) determined from saturation binding studies were then used to calculate inhibition dissociation constants (Ki) using the following equation: […]
This approach follows that set out in Kenakin, T.P. Pharmacologic analysis of drug-receptor interaction. Raven Press, New York, 2nd Edition.

[2] = target: T1, human cloned 5-HT2B receptors; experiment: Human cloned 5-HT2B cell-based functional assay (Fluo-4, CHO.K1 cells); settings: inhibition of 5-HT response, CHO.K1 cells expressing cloned 5-HT2B, Fluo-4 AM
Description: The following describes an in vitro functional assay using human cloned 5-HT2B receptors to determine the ability of compounds to block the receptor. CHO.K1 cells expressing cloned 5-HT2B receptor were maintained In Ultra-CHO medium containing 400 μg/ml of G418, 100 U/ml penicillin, 100 μg/ml streptomycin, 2.5 μg/ml fungizone, in 95/5% O2/CO2 at 37° C. Ultra-CHO medium additionally supplemented with 1% foetal bovine serum was used when seeding the cells and removed after 5 hours. Cells were plated in Costar 96 well white, clear-bottomed plate at a density of 50,000 cells per well and incubated for at least 24 hours in 95/5% O2/CO2 at 37° C. before running the assay. Media was removed from the wells and 200 μl of 4 μM Fluo-4 AM added, this was incubated in a Wallace Victor 2V workstation at 37° C. for 30 minutes. The Fluo-4 AM was then removed from the wells, which were then washed twice with 200 μl of buffer (HBSS without calcium/magnesium/phenol red, 20 mM HEPES, 1 mM Ca^2+, 1 mM Mg^2+, 2.5 mM probenecid, pH to 7.4), 180 μl of buffer or test compound was added to the well and incubated for 30 minutes. The Victor 2V injectors were used to inject 20 μl of 5-HT after obtaining 10 0.1-second baseline readings at 535 nm, followed by 150 readings. All test compounds were aliquoted in 100% DMSO at 10 mM and diluted to 1 mM in 50% DMSO, subsequent dilutions were made using buffer. Buffer was also used to dilute the 5-HT. Data were analysed using Microsoft Excel and GraphPad Prism, with the latter used to produce sigmoidal dose-response curves for each compound. The compound concentration that inhibited the 5-HT response by 50% was taken (IC50-M), and the results are shown in Table 3, as pIC50, being the negative log (to the base 10) of the measured IC50 values.

[3] = target: T2, cloned human 5-HT2C receptor (Homo sapiens, UniProt P28335); experiment: Human 5-HT2C receptor binding assay ([3H]mesulergine, CHO-K1 membranes); settings: displacement of [3H]mesulergine (1 nM), read-out: 5-HT2C pKi (converted)
T2 construct: purchased Euroscreen; host or cells: CHO-K1 cells
T2 sequence (P28335 33-458): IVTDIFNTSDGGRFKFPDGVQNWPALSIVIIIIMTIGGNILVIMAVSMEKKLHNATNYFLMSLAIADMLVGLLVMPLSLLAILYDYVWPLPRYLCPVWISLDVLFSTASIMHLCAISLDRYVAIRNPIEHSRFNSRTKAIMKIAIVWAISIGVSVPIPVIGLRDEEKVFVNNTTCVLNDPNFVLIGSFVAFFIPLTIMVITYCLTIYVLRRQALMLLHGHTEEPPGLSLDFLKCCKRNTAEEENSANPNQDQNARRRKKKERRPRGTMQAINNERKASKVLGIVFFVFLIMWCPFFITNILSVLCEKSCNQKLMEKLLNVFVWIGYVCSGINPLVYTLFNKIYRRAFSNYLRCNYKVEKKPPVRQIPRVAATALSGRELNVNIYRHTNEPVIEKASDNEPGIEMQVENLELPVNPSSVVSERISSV
Description: (§1) The binding affinity of ligands for human 5-HT2A and 5-HT2C receptors was determined using the following assay.
Membrane preparations from CHO-K1 cells expressing the cloned human 5-HT2C receptor were obtained (Euroscreen). The membranes were thawed rapidly and diluted in assay buffer containing Tris-HCl (50 mM, pH 7.7), ascorbic acid (0.1%) and pargyline (10 μM). The membranes were resuspended by homogenisation, prior to adding 6 μg of membranes to assay wells containing [^3H] mesulergine (1 nM), assay buffer (50 mM Tris at pH 7.7 and 0.1% ascorbic acid) containing pargyline (10 μM), and test compounds (1×10^−10 to 1×10^−4M). Non specific binding was determined in the presence of 100 μM mianserin. After 30 minutes incubation at 37° C., the assay mixture was filtered through a combination of GF-C and GF-B filters, pre-soaked in 1% bovine serum albumin, using a Brandel cell harvester, and were washed three times using ice cold Tris-HCl buffer (50 mM). Radioactivity retained on the filters was determined by liquid scintillation counting. For each test compound, the concentration that inhibited binding of [3H]mesulergine by 50% was determined using curve fitting software (Prism). Kd values (concentration of mesulergine required to occupy 50% of the receptor binding sites at equlibrium) determined from saturation binding studies were then used to calculate inhibition dissociation constants (Ki) using the following equation: […]

[4] = target: T3, cloned human 5-HT2A receptor (Homo sapiens, UniProt P28223); experiment: Human 5-HT2A receptor binding assay ([3H]ketanserin, CHO-K1 membranes); settings: displacement of [3H]ketanserin (1 nM), read-out: 5-HT2A pKi (converted)
T3 construct: purchased Euroscreen; host or cells: CHO-K1 cells
T3 sequence (P28223 whole entry): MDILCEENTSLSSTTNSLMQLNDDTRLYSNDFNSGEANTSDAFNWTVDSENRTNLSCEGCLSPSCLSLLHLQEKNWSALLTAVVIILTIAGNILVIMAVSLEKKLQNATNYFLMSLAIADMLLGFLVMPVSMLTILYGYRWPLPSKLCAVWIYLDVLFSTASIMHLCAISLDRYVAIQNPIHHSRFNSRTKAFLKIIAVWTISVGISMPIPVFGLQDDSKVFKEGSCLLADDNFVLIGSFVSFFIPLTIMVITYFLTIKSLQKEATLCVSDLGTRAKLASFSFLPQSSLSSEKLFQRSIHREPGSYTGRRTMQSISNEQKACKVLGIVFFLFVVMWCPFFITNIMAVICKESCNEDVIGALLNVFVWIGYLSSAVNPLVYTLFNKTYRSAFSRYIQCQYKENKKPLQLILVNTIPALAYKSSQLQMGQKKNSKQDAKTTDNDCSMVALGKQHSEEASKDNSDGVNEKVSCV
Description: as §1
Membrane preparations from CHO-K1 cells expressing the cloned human 5-HT2A receptor were obtained (Euroscreen). The membranes were thawed rapidly and diluted in assay buffer containing Tris-HCl (50 mM, pH 7.7). The membranes were resuspended by homogenisation, prior to adding 15 μg of membranes to assay wells containing [3H] ketanserin (1 nM), assay buffer (50 mM Tris at pH 7.4) containing pargyline (10 μM), and test compounds (1×10^−10 to 1×10^−4M). Non specific binding was determined in the presence of 100 μM mianserin. After 15 minutes incubation at 37° C., the assay mixture was filtered through a combination of GF-C and GF-B filters, pre-soaked in 0.05% Brij, using a Brandel cell harvester, and were washed three times using ice cold Tris-HCl buffer (50 mM). Radioactivity retained on the filters was determined by liquid scintillation counting. For each test compound, the concentration that inhibited binding of [^3H]ketanserin by 50% was determined using curve fitting software (Prism). Kd values (concentration of ketanserin required to occupy 50% of the receptor binding sites at equlibrium) determined from saturation binding studies were then used to calculate inhibition dissociation constants (Ki) using the following equation: […]

T1 sequence (P41595 whole entry): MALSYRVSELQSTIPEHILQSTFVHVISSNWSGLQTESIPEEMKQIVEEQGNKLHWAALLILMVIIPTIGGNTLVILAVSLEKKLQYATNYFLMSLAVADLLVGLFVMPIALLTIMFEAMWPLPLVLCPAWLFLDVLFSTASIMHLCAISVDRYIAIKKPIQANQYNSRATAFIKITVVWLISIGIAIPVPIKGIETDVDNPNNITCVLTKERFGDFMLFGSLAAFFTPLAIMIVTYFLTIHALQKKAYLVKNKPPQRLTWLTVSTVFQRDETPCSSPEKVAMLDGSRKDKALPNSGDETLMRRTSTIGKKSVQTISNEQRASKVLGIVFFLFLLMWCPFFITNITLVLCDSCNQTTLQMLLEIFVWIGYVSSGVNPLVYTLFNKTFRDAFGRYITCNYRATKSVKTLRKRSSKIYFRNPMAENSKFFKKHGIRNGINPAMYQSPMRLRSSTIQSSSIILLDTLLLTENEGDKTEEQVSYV

SMILES	Ki [1]	IC50 [2]	melting point	Ki [3]	Ki [4]
CNc1nc(-c2cccc3ccccc23)co1 [Compound 2, 2-methylamino-4-(naphth-1-yl)oxazole]	< 1 µM	< 10 µM	164 to 166 °C	> 1 µM	> 10 µM
Cc1nc(N)oc1-c1cccc2ccccc12 [Compound 3, 2-amino-4-methyl-5-(naphth-1-yl)oxazole]	< 0.01 µM	< 0.1 µM	187 to 189 °C	> 10 µM	> 10 µM
CN(C)c1nc(-c2cccc3ccccc23)co1 [Compound 8, 2-dimethylamino-4-(naphth-1-yl)oxazole]	< 1 µM	–	30 to 32 °C	> 10 µM	> 10 µM
CC(=O)Nc1nc(-c2cccc3ccccc23)co1 [Compound 9, 2-acetylamino-4-(naphth-1-yl)oxazole]	< 1 µM	–	188 to 190 °C	> 1 µM	> 10 µM
Nc1nc(-c2ccc3ccccc3c2)co1 [Compound 16, 4-naphthalen-2-yl-oxazol-2-ylamine]	< 1 µM	< 10 µM	–	> 10 µM	> 10 µM
COc1ccc2ccccc2c1-c1coc(NC(C)=O)n1 [Compound 25, N-[4-(2-methoxy-naphthalen-1-yl)-oxazol-2-yl]-acetamide]	< 0.1 µM	< 1 µM	–	> 1 µM	> 1 µM

From patent publication US7429607B2, “5-HT2B receptor antagonists” (Asterand UK Limited, priority 2002, dated 2008)
